Test results from publication PMC11496704, “Synthesis and cytotoxicity studies of novel N-arylbenzo[h]quinazolin-2-amines” (Beilstein Journal of Organic Chemistry, 2024).
Like-named read-outs stand apart in the source and are kept apart here.

Assays:
HuH-7 = assay: Cytotoxicity secondary screen (IC50); type: cell-based; conditions: Homo sapiens, 48 h exposure, mean of triplicates, NE: no effect
Experimental: (§1) Cell culture. Skin normal fibroblastic cells are purchased from Lonza (Basel, Switzerland), HuH-7, Caco-2, MDA-MB-231, HCT-116, PC3, MCF7 and NCI-H727 cancer cell lines were obtained from ATCC (American Type Culture Collection). Cells are grown at 37 °C, 5% CO2 in ATCC recommended media: DMEM for HuH-7, MDA-MB-231, MDA-MB-468 and fibroblast, EMEM for MCF7 and CaCo-2, McCoy’s for HCT-116 and RPMI for PC3 and NCI-H727. All culture media are supplemented by 10% of FBS, 1% of penicillin-streptomycin and 2 mM glutamine.
(§2) Both studies have been performed following the protocols described in a previous paper, see ref. [2].

PC3 [1] = assay: Cytotoxicity secondary screen (IC50); type: cell-based; conditions: Homo sapiens, PC-3; 48 h exposure, mean of triplicates; NE: no effect
Experimental: as §1, §2

normal human fibroblasts = assay: Cytotoxicity secondary screen (IC50); type: cell-based; conditions: Fibroblast, 48 h exposure, mean of triplicates, NE: no effect, highest concentration tested 25 μM, read-out: IC50 Fibro
Experimental: as §1, §2

Caco-2 [2] = assay: Cytotoxicity secondary screen (IC50); type: cell-based; conditions: Homo sapiens, 48 h exposure, mean of triplicates, NE: no effect
Experimental: (§3) Next, we performed a cytotoxicity screening of the nineteen molecules 4a–s, at 25 μM, investigating seven representative cancer cell lines: hepatocellular carcinoma HuH-7, colorectal adenocarcinoma CaCo-2, breast carcinoma MDA-MB-231 and MDA-MB-468, colorectal carcinoma HCT-116, prostate carcinoma PC3 and breast carcinoma MCF7. […] For details see: ref. [2] and Supporting Information File 1, Table S1.
as §1, §2

HCT-116 = assay: Cytotoxicity secondary screen (IC50); type: cell-based; conditions: Homo sapiens, 48 h exposure, mean of triplicates, NE: no effect
Experimental: as §3, §1, §2

Caco-2 [3] = assay: Cytotoxicity primary screen (single dose); type: cell-based; conditions: 48 h exposure, mean of triplicates
Experimental: as §3, §1, §2
(§4) Table S1: Cytotoxicity studies (single dose at 25µM) of N-arylbenzo[h]quinazolin-2-amines 4a–s
(§5) The toxicity is expressed as the percentage of cell survival (from 100 % to 0 %) over DMSO control after 48 h exposure (mean of triplicates).
(§6) Effect of the solvent (DMSO) was studied at 0.25%.

HuH7 [4] = assay: Cytotoxicity primary screen (single dose); type: cell-based; conditions: Homo sapiens, Huh-7; single dose 25 μM, 48 h exposure, mean of triplicates; read-out: percentage of cell survival over DMSO control, HuH7
Experimental: as §3, §1, §2, §4, §5, §6

HCT116 = assay: Cytotoxicity primary screen (single dose); type: cell-based; parameters: viability: dose or concentration left out as unconfirmed; conditions: Homo sapiens, HCT-116, 48 h exposure, mean of triplicates, read-out: percentage of cell survival over DMSO control, HCT116; for viability at 25 µM: single dose 25 μM
Experimental: as §3, §1, §2, §4, §5, §6

MCF7 [5] = assay: Cytotoxicity primary screen (single dose); type: cell-based; parameters: viability: dose or concentration left out as unconfirmed; conditions: Homo sapiens, 48 h exposure, mean of triplicates, read-out: percentage of cell survival over DMSO control, MCF7; for viability at 25 µM: single dose 25 μM
Experimental: as §3, §1, §2, §4, §5, §6

MDA231 = assay: Cytotoxicity primary screen (single dose); type: cell-based; parameters: viability: dose or concentration left out as unconfirmed; conditions: Homo sapiens, MDA-MB-231, 48 h exposure, mean of triplicates, read-out: percentage of cell survival over DMSO control, MDA231; for viability at 25 µM: single dose 25 μM
Experimental: as §3, §1, §2, §4, §5, §6

MDA468 = assay: Cytotoxicity primary screen (single dose); type: cell-based; parameters: viability: dose or concentration left out as unconfirmed; conditions: 48 h exposure, mean of triplicates, read-out: percentage of cell survival over DMSO control, MDA468; for viability at 25 µM: single dose 25 μM
Experimental: as §3, §1, §2, §4, §5, §6

PC3 [6] = assay: Cytotoxicity primary screen (single dose); type: cell-based; parameters: viability: dose or concentration left out as unconfirmed; conditions: Homo sapiens, PC-3, 48 h exposure, mean of triplicates, read-out: percentage of cell survival over DMSO control, PC3; for viability at 25 µM: single dose 25 μM
Experimental: as §3, §1, §2, §4, §5, §6

[7] = tested on: seven representative tumor cell lines; assay: Cytotoxicity IC50, summary over several cell lines; type: cell-based; conditions: read-out: IC50 (span over cell lines)
Experimental: as §1, with “For details see: ref. [2] and Supporting Information File 1, Table S1. […] [table] Cell culture.” for “Cell culture.”, “mM glutamine. Both studies have been performed following the protocols described in a previous paper, see ref. [2].” for “mM glutamine.”

MDA-MB-231 = assay: Cytotoxicity secondary screen (IC50); type: cell-based; conditions: Homo sapiens, 48 h exposure, mean of triplicates, NE: no effect
MDA-MB-468 = assay: Cytotoxicity secondary screen (IC50); type: cell-based; conditions: Homo sapiens, 48 h exposure, mean of triplicates, NE: no effect
MCF7 [8] = assay: Cytotoxicity secondary screen (IC50); type: cell-based; conditions: Homo sapiens, 48 h exposure, mean of triplicates, NE: no effect
HuH7 [9] = assay: Cytotoxicity primary screen (single dose); type: cell-based; parameters: dose or concentration left out as unconfirmed; conditions: Homo sapiens, Huh-7; 48 h exposure, mean of triplicates; read-out: percentage of cell survival over DMSO control, HuH7
DYRKs kinases = tested on: DYRKs kinases; parameters: method as in PMID 33422908, PMID 36234686; conditions: at 100 μM; cited from earlier work
[10] = reference compound at 0.025 M (so in the source)

Compound | IC50 (HuH-7) [µM] | IC50 (PC3 [1]) [µM] | IC50 (normal human fibroblasts) [µM] | IC50 (Caco-2 [2]) [µM] | IC50 (HCT-116) [µM] | percentage of cell survival over DMSO control, CaCo-2 (Caco-2 [3]; single dose 25 μM) [%] | viability at 25 µM (HuH7 [4]) [%] | viability at 25 µM (HCT116) [%] | viability at 25 µM (MCF7 [5]) [%] | viability at 25 µM (MDA231) [%] | viability at 25 µM (MDA468) [%] | viability at 25 µM (PC3 [6]) [%] | IC50 (MDA-MB-231) [µM] | IC50 (MDA-MB-468) [µM] | IC50 (MCF7 [8]) [µM] | other results
c1ccc(Nc2ncc3ccc4ccccc4c3n2)cc1 [Compound 4a, N-phenylbenzo[h]quinazolin-2-amine] | 1.7 | 34.5 | > 25 | 4.7 | 4 | 33 | 60 | 48 | 59 | 61 | 56 | 58 | 29 | 6 | 13 | IC50 ([7]; against HuH-7, Caco-2, MDA-MB-468 and HCT-116 cells): 1.7 to 6 µM
CC(=O)O[C@H]1C(=O)[C@@]2(C)[C@H]([C@H](OC(=O)c3ccccc3)[C@]3(O)C[C@H](OC(=O)[C@H](O)[C@@H](NC(=O)c4ccccc4)c4ccccc4)C(C)=C1C3(C)C)[C@]1(OC(C)=O)CO[C@@H]1C[C@@H]2O [Taxol, reference compound] | 0.009 | 0.004 | – | 0.07 | 0.003 | – | – | – | – | – | – | – | 0.02 | 0.006 | 0.02 | percentage of cell survival over DMSO control, CaCo-2 (Caco-2 [3]; [10]): 36%; viability (HCT116): 7%; viability (MCF7 [5]): 27%; viability (MDA231): 32%; viability (PC3 [6]): 30%; viability (HuH7 [9]): 43%
Fc1cccc(Nc2ncc3ccc4ccccc4c3n2)c1 [Compound 4i, N-(3-fluorophenyl)benzo[h]quinazolin-2-amine] | 17 | 11 | > 25 | 2 | 6 | 34 | 60 | 11 | 59 | 49 | 59 | 36 | 17 | 4 | 3 | IC50 ([7]; on Caco-2, MDA-MB-468, HCT-116 and MCF7): 2 to 6 µM
Cc1ccc(-n2cc(COc3cccc4cnc(Nc5cccc(Cl)c5)nc34)nn2)c([N+](=O)[O-])c1 [DB18] | – | – | – | – | – | – | – | – | – | – | – | – | – | – | – | action against DYRKs kinases (DYRKs kinases): does not show any action
COc1cccc2c1C(=O)c1c(O)c3c(c(O)c1C2=O)C[C@@](O)(C(=O)CO)C[C@@H]3O[C@H]1C[C@H](N)[C@H](O)[C@H](C)O1 [doxorubicin, reference compound] | 0.03 | 0.06 | – | – | 0.04 | – | – | – | – | – | – | – | 0.03 | 0.03 | 0.07 | percentage of cell survival over DMSO control, CaCo-2 (Caco-2 [3]; [10]): 59%; viability (MDA231): 31%; viability (MDA468): 24%; viability (PC3 [6]): 42%; viability (HuH7 [9]): 59%
Cc1ccccc1Nc1ncc2ccc3ccccc3c2n1 [Compound 4b, N-(o-tolyl)benzo[h]quinazolin-2-amine] | > 25 | > 25 | > 25 | > 25 | > 25 | 56 | 69 | 79 | 70 | 86 | 93 | 72 | > 25 | > 25 | > 25 | –
Fc1ccccc1Nc1ncc2ccc3ccccc3c2n1 [Compound 4h, N-(2-fluorophenyl)benzo[h]quinazolin-2-amine] | > 25 | > 25 | > 25 | 4.6 | > 25 | 48 | 81 | 82 | 83 | 83 | 94 | 74 | > 25 | > 25 | > 25 | –
